The structures appear in SMILES notation.

One series addresses T1, Sphk1 (Rattus norvegicus, UniProt Q91V26).
T1 construct: endogenous in cells; host or cells: cultured rat aortic smooth muscle cells
The series can be described thus: Sphk1/Sphk2 activity in PDGF-BB-stimulated smooth muscle cells (P32 ATP kinase assay). It is filed as cell-based. To be noted: cultured rat aortic smooth muscle cells stimulated with PDGF-BB; FIG. 19B. Here is the method:
(§1) Smooth muscle cells (SMCs) are treated with platelet-derived growth factor BB (PDGF-BB), a potent modulator of SMC.
(§2) FIG. 19 illustrates the PDGF-BB increase Sphk1 mRNA, Spkh1 (not Sphk2) activity and S1P production. […] Cultured rat aortic smooth muscle cells were stimulated with PDGF-BB. 19A.) Real-time PCR analysis of Sphk1 mRNA at various time points compared to vehicle control. 19B.) Analysis of Sphk1 and Sphk2 activity (P^32ATP kinase assay). 19C.) S1P concentration in the media 12 hours after stimulating SMCs with PDGF-BB.

The test system of another series is S1P production. The experiment in a line: S1P production by smooth muscle cells (LC/MS). The class given is cell-based, rat. Here is the method: as §1, §2
For series [1], the system named is SMCs. The experiment in a line: Cell cytotoxicity by Promega caspase activity assay. To be noted: after 24 hr treatment, FIG. 21B. It is filed as cell-based.
Series [2] relates to SMCs. The series can be described thus: Images of SMCs treated with and without compound. To be noted: FIG. 21C. The class given is cell-based.
Another series relates to SphK. The experiment in a line: SphK inhibition.
The subject of series [3] is SMCs. The series can be described thus: PDGF-BB-induced SMC proliferation by BrdU incorporation. The class given is cell-based. Conditions: FIG. 21A. On the procedure: Cell proliferation was measured by BrdU incorporation.

T1 sequence (Q91V26 whole entry): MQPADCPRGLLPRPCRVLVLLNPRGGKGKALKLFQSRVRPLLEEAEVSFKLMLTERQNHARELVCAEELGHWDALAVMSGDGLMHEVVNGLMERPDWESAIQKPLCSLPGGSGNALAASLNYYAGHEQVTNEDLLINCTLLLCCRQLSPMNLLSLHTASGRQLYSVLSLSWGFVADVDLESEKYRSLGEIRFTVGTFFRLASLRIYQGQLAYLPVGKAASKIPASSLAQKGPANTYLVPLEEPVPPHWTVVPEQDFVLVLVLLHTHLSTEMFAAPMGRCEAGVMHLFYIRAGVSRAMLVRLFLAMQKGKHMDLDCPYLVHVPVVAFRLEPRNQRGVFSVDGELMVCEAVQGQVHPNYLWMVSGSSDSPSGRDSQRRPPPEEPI

For the compound `CCCCCCCCc1ccc(C(=O)N[C@@H](C)C(=N)N)cc1` [VPC94075], the “PDGF-BB-induced Sphk1 activity” value at Sphk1 is “prevents PDFD-BB-induced Sphk1 activity”. For the same compound, the “PDGF-BB-induced S1P production” value in the series on S1P production (10 uM, S1P in media 12 hours after stimulating SMCs with PDGF-BB, FIG. 19C) is “blocks PDGF-BB-induced S1P production”. Also, the “endogenous and PDGF-BB-induced S1P production” value in the series with S1P production (concentration not given) was “suppresses both endogenous and PDGF-BB-induced S1P production”. In addition, in the series with SMCs [1], the cell death result is “does not induce cell death”. Also, in the series on SMCs [2], the “SMC proliferation as indicated by differences in confluence” value is on record as “prevention of SMC proliferation” and the cell morphology entry is “healthy cell morphology”. Moreover, the “SphK inhibition (description)” value with SphK is reported as “non-selective SphK inhibitor”.

For the compound `CCCCCCCCc1ccc(C(=O)NC(C)C(N)=O)cc1` (stereo not drawn) [VPC94193], the “PDGF-BB-induced SMC proliferation” value in the series on SMCs [3] was “prevented PDGF-BB-induced SMC proliferation”. Further, the “SphK inhibition (description)” value with SphK is “inactive form”.

Values taken from patent US8686046B2, “Compositions and methods for inhibiting sphingosine kinase” (University of Virginia Patent Foundation, priority 2008, dated 2014).
